Experimental data reported in patent US20070219186A1, “Pyrazolo[1,5-A]pyrimidine derivatives and methods of use thereof” (priority 2006, published 2007).
Like-named read-outs stand apart in the source and are kept apart here.

Biological target: T1, human B-Raf (Homo sapiens, UniProt P15056)
T1 construct: Flag; GST; made in house; host or cells: Sf9 insect cells (B-Raf); E. coli (MEK1-GST)
Test: B-Raf Kinase to MEK1 ELISA
Format: biochemical
Conditions: for inhibition at 10 µM: read-out: % Inhib./10 uM
How it was run: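 Read-out is a DELFIA europium signal from phospho-MEK1 (Ser217/221) antibody after capture of GST-MEK1 (50 nM final) on anti-GST plates. Phosphorylation comes from Sf9-expressed Flag/GST human B-Raf (~20 ng) with ATP/MgCl2, 60 min RT, pH 7.2 MOPS.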

[1] = median, cpd concentrations from 10 μM to 30 nM in half log dilutions, read-out: Median IC50

T1 sequence (P15056 whole entry): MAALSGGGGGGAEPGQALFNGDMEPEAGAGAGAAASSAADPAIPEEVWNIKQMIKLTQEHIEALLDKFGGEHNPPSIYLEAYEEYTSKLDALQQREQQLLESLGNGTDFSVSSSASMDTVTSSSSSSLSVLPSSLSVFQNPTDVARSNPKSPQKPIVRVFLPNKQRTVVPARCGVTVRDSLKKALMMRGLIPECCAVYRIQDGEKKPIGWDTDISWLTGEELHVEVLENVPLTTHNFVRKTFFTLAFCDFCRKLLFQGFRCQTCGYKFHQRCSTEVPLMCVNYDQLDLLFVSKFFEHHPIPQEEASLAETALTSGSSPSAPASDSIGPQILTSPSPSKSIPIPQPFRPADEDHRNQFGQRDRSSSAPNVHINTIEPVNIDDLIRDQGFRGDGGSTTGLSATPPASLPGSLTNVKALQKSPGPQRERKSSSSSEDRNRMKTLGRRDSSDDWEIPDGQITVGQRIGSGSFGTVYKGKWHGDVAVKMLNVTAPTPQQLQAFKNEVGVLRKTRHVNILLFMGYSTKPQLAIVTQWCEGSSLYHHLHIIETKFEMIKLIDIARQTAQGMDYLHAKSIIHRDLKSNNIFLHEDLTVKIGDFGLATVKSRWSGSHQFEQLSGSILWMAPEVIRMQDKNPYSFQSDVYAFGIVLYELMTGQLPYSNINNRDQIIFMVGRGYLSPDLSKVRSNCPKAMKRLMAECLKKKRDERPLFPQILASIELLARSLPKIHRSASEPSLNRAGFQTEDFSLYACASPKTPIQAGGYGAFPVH

SMILES | IC50 [1] | inhibition at 10 µM | IC50 | % Inhib./10 uM (single point assay, 10 uM)
O=C(Nc1cccc(-c2ccnc3cc(-c4ccccn4)nn23)c1)c1cccc(C(F)(F)F)c1 [Example 111, N-[3-(2-pyridin-2-ylpyrazolo[1,5-a]pyrimidin-7-yl)phenyl]-3-(trifluoromethyl)benzamide] | > 3000 nM | 24% | – | –
Cc1cc2nccc(-c3cccc(NC(=O)c4cccc(C(F)(F)F)c4)c3)n2n1 [Example 112, N-[3-(2-methylpyrazolo[1,5-a]pyrimidin-7-yl)phenyl]-3-(trifluoromethyl)benzamide] | > 10000 nM | 26% | – | –
O=C(Nc1cccc(-c2ccnc3cc(-c4ccco4)nn23)c1)c1cccc(C(F)(F)F)c1 [Example 113, N-{3-[2-(2-furyl)pyrazolo[1,5-a]pyrimidin-7-yl]phenyl}-3-(trifluoromethyl)benzamide] | > 10000 nM | 45% | – | –
O=C(Nc1cccc(-c2ccnc3cc(-c4ccc(Cl)cc4)nn23)c1)c1cccc(C(F)(F)F)c1 [Example 115, N-{3-[2-(4-chlorophenyl)pyrazolo[1,5-a]pyrimidin-7-yl]phenyl}-3-(trifluoromethyl)benzamide] | > 10000 nM | 24% | – | –
Cc1cc2nccc(-c3cccc(NC(=O)c4ccc(C)c(C(F)(F)F)c4)c3)n2n1 [Example 116, 4-methyl-N-[3-(2-methylpyrazolo[1,5-a]pyrimidin-7-yl)phenyl]-3-(trifluoromethyl)benzamide] | > 10000 nM | 31% | – | –
Cc1ccc(C(=O)Nc2cccc(-c3ccnc4cc(-c5cccs5)nn34)c2)cc1C(F)(F)F [Example 117, 4-methyl-N-{3-[2-(2-thienyl)pyrazolo[1,5-a]pyrimidin-7-yl]phenyl}-3-(trifluoromethyl)benzamide] | > 10000 nM | 24% | – | –
Cc1ccc(C(=O)Nc2cccc(-c3ccnc4cc(-c5ccc(Cl)cc5)nn34)c2)cc1C(F)(F)F [Example 118, N-{3-[2-(4-chlorophenyl)pyrazolo[1,5-a]pyrimidin-7-yl]phenyl}-4-methyl-3-(trifluoromethyl)benzamide] | > 10000 nM | 22% | – | –
Cc1ccc(C(=O)Nc2cccc(-c3ccnc4cc(-c5ccccc5)nn34)c2)cc1C(F)(F)F [Example 119, 4-methyl-N-[3-(2-phenylpyrazolo[1,5-a]pyrimidin-7-yl)phenyl]-3-(trifluoromethyl)benzamide] | > 10000 nM | 29% | – | –
O=C(Nc1cccc(-c2ccnc3c(C(=O)NCCCn4ccnc4)cnn23)c1)Nc1ccc(Cl)c(C(F)(F)F)c1 [Example 120, 7-{3-[({[4-chloro-3-(trifluoromethyl)phenyl]amino}carbonyl)amino]phenyl}-N-[3-(1H-imidazol-1-yl)propyl]pyrazolo[1,5-a]pyrimidine-3-carboxamide] | 120 nM | 92% | – | –
COCCCNC(=O)c1cnn2c(-c3cccc(NC(=O)Nc4ccc(Cl)c(C(F)(F)F)c4)c3)ccnc12 [Example 121, 7-{3-[({[4-chloro-3-(trifluoromethyl)phenyl]amino}carbonyl)amino]phenyl}-N-(3-methoxypropyl)pyrazolo[1,5-a]pyrimidine-3-carboxamide] | 190 nM | 92% | – | –
CCN(CC)CCNC(=O)c1cnn2c(-c3cccc(NC(=O)Nc4ccc(Cl)c(C(F)(F)F)c4)c3)ccnc12 [Example 122, 7-{3-[({[4-chloro-3-(trifluoromethyl)phenyl]amino}carbonyl)amino]phenyl}-N-[2-(diethylamino)ethyl]pyrazolo[1,5-a]pyrimidine-3-carboxamide] | – | 83% | 140 nM | –
O=C(Nc1cccc(-c2ccnc3c(C(=O)NCCN4CCOCC4)cnn23)c1)Nc1ccc(Cl)c(C(F)(F)F)c1 [Example 123, 7-{3-[({[4-chloro-3-(trifluoromethyl)phenyl]amino}carbonyl)amino]phenyl}-N-(2-morpholin-4-ylethyl)pyrazolo[1,5-a]pyrimidine-3-carboxamide] | – | 93% | 120 nM | –
O=C(Nc1cccc(-c2ccnc3c(C(=O)OCC(F)(F)F)cnn23)c1)c1cccc(C(F)(F)F)c1 [Example 125, 2,2,2-trifluoroethyl 7-(3-{[3-(trifluoromethyl)benzoyl]amino}phenyl)pyrazolo[1,5-a]pyrimidine-3-carboxylate] | 900 nM | 67% | – | –
O=C(Nc1cccc(-c2ccnc3c(C(=O)Oc4cccnc4)cnn23)c1)c1cccc(C(F)(F)F)c1 [Example 126, pyridin-3-yl 7-(3-{[3-(trifluoromethyl)benzoyl]amino}phenyl)pyrazolo[1,5-a]pyrimidine-3-carboxylate] | > 10000 nM | 17% | – | –
CN(C)CCOC(=O)c1cnn2c(-c3cccc(NC(=O)c4cccc(C(F)(F)F)c4)c3)ccnc12 [Example 127, 2-(dimethylamino)ethyl 7-(3-{[3-(trifluoromethyl)benzoyl]amino}phenyl)pyrazolo[1,5-a]pyrimidine-3-carboxylate] | 7070 nM | 54% | – | –
COCCOC(=O)c1cnn2c(-c3cccc(NC(=O)c4cccc(C(F)(F)F)c4)c3)ccnc12 [Example 128, 2-methoxyethyl 7-(3-{[3-(trifluoromethyl)benzoyl]amino}phenyl)pyrazolo[1,5-a]pyrimidine-3-carboxylate] | 116 nM | 68% | – | –
O=C(Nc1cccc(-c2ccnc3cc(-c4ccncc4)nn23)c1)c1ccc(Cl)c(C(F)(F)F)c1 [Example 129, 4-chloro-N-[3-(2-pyridin-4-ylpyrazolo[1,5-a]pyrimidin-7-yl)phenyl]-3-(trifluoromethyl)benzamide] | – | 86% | 50 nM | –
COc1ccc(C(=O)Nc2cccc(-c3ccnc4cc(-c5ccncc5)nn34)c2)cc1C(F)(F)F [Example 130, 4-methoxy-N-[3-(2-pyridin-4-ylpyrazolo[1,5-a]pyrimidin-7-yl)phenyl]-3-(trifluoromethyl)benzamide] | 70 nM | 91% | – | –
O=C(Nc1cccc(-c2ccnc3cc(-c4ccncc4)nn23)c1)Nc1ccc(F)c(C(F)(F)F)c1 [Example 131, N-[4-fluoro-3-(trifluoromethyl)phenyl]-N′-[3-(2-pyridin-4-ylpyrazolo[1,5-a]pyrimidin-7-yl)phenyl]urea] | 30 nM | 98% | – | –
O=C(Nc1cccc(-c2ccnc3cc(-c4ccncc4)nn23)c1)Nc1ccc(Cl)c(C(F)(F)F)c1 [Example 133, N-[4-chloro-3-(trifluoromethyl)phenyl]-N′-[3-(2-pyridin-4-ylpyrazolo[1,5-a]pyrimidin-7-yl)phenyl]urea] | 30 nM | – | – | 98%
Cc1ccc(C(=O)Nc2cccc(-c3ccnc4cc(-c5ccncc5)nn34)c2)cc1C(F)(F)F [Example 134, 4-methyl-N-[3-(2-pyridin-4-ylpyrazolo[1,5-a]pyrimidin-7-yl)phenyl]-3-(trifluoromethyl)benzamide] | 40 nM | 96% | – | –
O=C(Nc1cccc(-c2ccnc3cc(-c4ccc(CO)cc4)nn23)c1)c1cccc(C(F)(F)F)c1 [Example 135, N-(3-{2-[4-(hydroxymethyl)phenyl]pyrazolo[1,5-a]pyrimidin-7-yl}phenyl)-3-(trifluoromethyl)benzamide] | > 10000 nM | 32% | – | –
COc1ccc(-c2cc3nccc(-c4cccc(NC(=O)c5cccc(C(F)(F)F)c5)c4)n3n2)cc1 [Example 136, N-{3-[2-(4-methoxyphenyl)pyrazolo[1,5-a]pyrimidin-7-yl]phenyl}-3-(trifluoromethyl)benzamide] | – | 35% | > 10000 nM | –
O=C(Nc1cccc(-c2ccnc3cc(-c4cccc(C(F)(F)F)c4)nn23)c1)c1cccc(C(F)(F)F)c1 [Example 137, 3-(trifluoromethyl)-N-(3-{2-[3-(trifluoromethyl)phenyl]pyrazolo[1,5-a]pyrimidin-7-yl}phenyl)benzamide] | > 10000 nM | – | – | –
CC(C)(C)c1cc2nccc(-c3cccc(NC(=O)c4cccc(C(F)(F)F)c4)c3)n2n1 [Example 138, N-[3-(2-tert-butylpyrazolo[1,5-a]pyrimidin-7-yl)phenyl]-3-(trifluoromethyl)benzamide] | > 10000 nM | 46% | – | –
O=C(Nc1cccc(-c2ccnc3cc(-c4ccc(F)cc4)nn23)c1)c1cccc(C(F)(F)F)c1 [Example 139, N-{3-[2-(4-fluorophenyl)pyrazolo[1,5-a]pyrimidin-7-yl]phenyl}-3-(trifluoromethyl)benzamide] | > 10000 nM | 35% | – | –
CCOCOCc1ccc(-c2cc3nccc(-c4cccc(NC(=O)c5cccc(C(F)(F)F)c5)c4)n3n2)cc1 [Example 140, N-[3-(2-{4-[(ethoxymethoxy)methyl]phenyl}pyrazolo[1,5-a]pyrimidin-7-yl)phenyl]-3-(trifluoromethyl)benzamide] | > 10000 nM | 39% | – | –
COC(=O)c1cccc(-c2cc3nccc(-c4cccc(NC(=O)c5cccc(C(F)(F)F)c5)c4)n3n2)c1 [Example 141, methyl 3-[7-(3-{[3-(trifluoromethyl)benzoyl]amino}phenyl)pyrazolo[1,5-a]pyrimidin-2-yl]benzoate] | > 10000 nM | 32% | – | –
O=C(Nc1cccc(-c2ccnc3c(Br)cnn23)c1)Nc1ccc(Cl)c(C(F)(F)F)c1 [Example 143, N-[3-(3-bromopyrazolo[1,5-a]pyrimidin-7-yl)phenyl]-N′-[4-chloro-3-(trifluoromethyl)phenyl]urea] | 140 nM | 92% | – | –
O=C(Nc1cccc(-c2ccnc3cc(-c4ccncc4)nn23)c1)c1ccccc1 [Example 144, N-[3-(2-pyridin-4-ylpyrazolo[1,5-a]pyrimidin-7-yl)phenyl]benzamide] | > 10000 nM | 15% | – | –
